Results published in the NIST ThermoML archive (doi:10.1016/j.jct.2018.11.015).
± gives the expanded uncertainty stated by the source.

Settings: Liquid

**Q.** For CCCCOC(=O)c1ccccc1C(=O)OCc1ccccc1 [benzyl butyl 1,2-benzenedioate], which “vapor or sublimation pressure” value (343.15 K, Transpiration method) is on record?
**A.** 1.4e-05 ± 2e-06 kPa

**Q.** What about the “vapor or sublimation pressure” value (353.15 K, Transpiration method) of the same compound?
**A.** 5.6e-05 ± 9e-06 kPa

**Q.** And the “vapor or sublimation pressure” value (373.15 K, Transpiration method)?
**A.** 0.00039 ± 5e-05 kPa

**Q.** What about the “vapor or sublimation pressure” value (393.15 K, Transpiration method) of the same compound?
**A.** 0.0022 ± 0.00031 kPa

**Q.** And the “vapor or sublimation pressure” value (423.15 K, Transpiration method)?
**A.** 0.0238 ± 0.0034 kPa

**Q.** With COC(=O)c1ccccc1C(=O)OC [dimethyl 1,2-benzenedicarboxylate] as the compound, how does the “vapor or sublimation pressure” value (313.15 K, Transpiration method) read?
**A.** 0.00141 ± 0.00023 kPa

**Q.** And the “vapor or sublimation pressure” value (333.15 K, Transpiration method)?
**A.** 0.00789 ± 0.00067 kPa

**Q.** What about the “vapor or sublimation pressure” value (350.9 K, Closed cell (Static) method) of the same compound?
**A.** 0.0297 ± 0.0019 kPa

**Q.** What about the “vapor or sublimation pressure” value (353.15 K, Transpiration method) of the same compound?
**A.** 0.0332 ± 0.0022 kPa

**Q.** And the “vapor or sublimation pressure” value (361.52 K, Closed cell (Static) method)?
**A.** 0.0589 ± 0.0037 kPa

**Q.** What about the “vapor or sublimation pressure” value (371.6 K, Closed cell (Static) method) of the same compound?
**A.** 0.1104 ± 0.0069 kPa

**Q.** And the “vapor or sublimation pressure” value (373.15 K, Transpiration method)?
**A.** 0.122 ± 0.007 kPa

**Q.** And the “vapor or sublimation pressure” value (381.69 K, Closed cell (Static) method)?
**A.** 0.1986 ± 0.012 kPa

**Q.** What about the “vapor or sublimation pressure” value (391.77 K, Closed cell (Static) method) of the same compound?
**A.** 0.3453 ± 0.021 kPa

**Q.** And the “vapor or sublimation pressure” value (393.15 K, Transpiration method)?
**A.** 0.391 ± 0.024 kPa

**Q.** What about the “vapor or sublimation pressure” value (401.71 K, Closed cell (Static) method) of the same compound?
**A.** 0.5751 ± 0.035 kPa

**Q.** And the “vapor or sublimation pressure” value (411.72 K, Closed cell (Static) method)?
**A.** 0.9413 ± 0.038 kPa

**Q.** And the “vapor or sublimation pressure” value (421.57 K, Closed cell (Static) method)?
**A.** 1.491 ± 0.06 kPa

**Q.** What about the “vapor or sublimation pressure” value (423.15 K, Transpiration method) of the same compound?
**A.** 1.668 ± 0.09 kPa
